From paper PMC3991622, “Immobilised Histidine Tagged β 2-Adrenoceptor Oriented by a Diazonium Salt Reaction and Its Application in Exploring Drug-Protein Interaction Using Ephedrine and Pseudoephedrine as Probes” (PLoS ONE, 2014)

Legend:
β 2-AR [1] = conditions: on β 2-AR; response relative to isoproterenol; cited from earlier work
Immobilized β 2-AR = system: T1, Immobilized β 2-AR; assay: Specificity and stability of the oriented β 2-AR column (retention of control drugs); format: binding, Sus scrofa; conditions: 20 mM phosphate buffer (pH 7.4), 0.2 mL/min; for Retention times, Immobilized β 2-AR: 37 °C, void time 1.6 min
T1 construct: made in house; host or cells: E. coli BL21 (DE3)
Method: (§1) The column containing the oriented immobilised β 2-AR was prepared by packing the stationary phase into a stainless steel column (2.1 mm×5.0 cm) using the slurry method at a pressure of 4.0×10^7 Pa. Phosphate buffer (20 mM, pH 7.4) was used as the slurry solution. The control column containing exposed silica gel and attached histidine was prepared using the same synthesis method as that of the β 2-AR column.
(§2) The mobile phases were prepared by adding 0 to 40 µM of ephedrine hydrochloride as the competing agent to 20 mM phosphate buffer (pH 7.4). All of the mobile phases were filtrated with 0.45 µm Millipore HV filters and degassed by ultrasonication before HPAC analysis. Working solutions of ephedrine and pseudoephedrine were prepared by dissolving the drugs in phosphate buffer (20 mM, pH 7.4) to a concentration of 1.0 mM. The detection wavelength was 220 nm with an injection of 5.0 µL for each drug. The flow rate was 0.2 mL/min for all of the analyses. […] The capacity factor (k') was calculated by detecting the retention time in triplicate for each injected sample using the equation k' = (tR−t0)/t0. When the injection solute was pseudoephedrine, Eq. (1) was used to plot the curve of 1/(k'-X) and [A], whereas Eq. (2) was used to achieve the plot between [drawing 5] and [A] when ephedrine was used as the analyte.
The specificity of the oriented β 2-AR column was tested by determining the retention times of specific drugs on the receptor.

β2-ARGsαS = target: β2-ARGsαS; set-up: method as in PMID 9478963; conditions: read-out: dissociation constant; cited from earlier work
wild-type β 2-AR = target: wild-type β 2-AR; set-up: method as in PMID 8095262; conditions: read-out: dissociation constant; cited from earlier work
β 2-AR [2] = target: T2, β 2-AR (Sus scrofa, UniProt Q28997); assay: Zonal elution on oriented immobilised β 2-AR column (HPAC); format: binding; conditions: for concentration of the binding site / capacity factor k′ / association constant / association constant KA: 37 °C; for types of binding site on β 2-AR: linear zonal elution plot
T2 construct: made in house; host or cells: E. coli BL21 (DE3)
T2 sequence (Q28997 whole entry): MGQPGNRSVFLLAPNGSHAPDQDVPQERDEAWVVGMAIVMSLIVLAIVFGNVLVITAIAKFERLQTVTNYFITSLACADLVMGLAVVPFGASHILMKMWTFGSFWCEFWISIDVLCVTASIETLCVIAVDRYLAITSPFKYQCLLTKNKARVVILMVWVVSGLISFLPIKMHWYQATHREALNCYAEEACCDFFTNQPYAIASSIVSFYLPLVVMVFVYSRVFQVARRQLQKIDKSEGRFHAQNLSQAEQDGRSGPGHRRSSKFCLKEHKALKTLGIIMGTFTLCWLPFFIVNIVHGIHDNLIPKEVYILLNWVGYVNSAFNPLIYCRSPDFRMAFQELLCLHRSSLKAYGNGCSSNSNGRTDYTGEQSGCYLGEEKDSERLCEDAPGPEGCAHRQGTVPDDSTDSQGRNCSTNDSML
Method: The binding of ephedrine and pseudoephedrine to the oriented immobilised β 2-AR was determined by zonal elution. The theory assumes that a known concentration of a competing agent (I) continuously passes through a column containing an immobilised ligand (L) while the injecting volume of an analyte (A) is small enough to be neglected compared with the concentration of I in the mobile phase. Assuming I and A have direct competition at a single binding site on L and the interactions have association/dissociation kinetics, Eq. (1) can be used to calculate the binding of A and I to L [24], [25]. [drawing 1] (1) where X is the capacity factor for A due to the existence of a second type of binding site on the column, and k' is the overall capacity factors of A ascribed to all the types of sites. In this case, the equation assumes the capacity factors of A produced by the individual sites are additive, and an independent estimate of the capacity factors due to the second type of site can be obtained, allowing for the capacity factor attributed to the first type of site 1 (Site 1) to be measured by k 1' = k'-X.
When the column is equilibrated with an eluent at concentration [A] and [I] equal to zero, and the retention of compound A is injected as a perturbation, Eq. (2) is used to determine the binding of A to L: [drawing 2] (2)
Assuming a single type of binding site, a linear expression can be obtained by plotting 1/sqrt (k') as a function of [A] to determine mL and K A. For two types of binding sites, a second term is added to the k' expressions.
as §1, §2

papillary muscle = system: papillary muscle; set-up: method as in PMID 3004791; conditions: positive inotropic effect on the papillary muscle; cited from earlier work
β 2-AR [3] = target: T2, β 2-AR; assay: Thermodynamic study (zonal elution at 10-45 °C, van't Hoff equation) on oriented immobilised β 2-AR; format: binding; conditions: for decrease of association constant / decrease of capacity factor / increase of binding sites: 10 °C to 45 °C; for capacity factor on the β 2-AR column: concentration 4.0 µM; for Kd: Association constant; for main force of the binding: semi-empirical rules of Ross et al.; for ΔS^θ: van't Hoff plot, 10-45 °C
Text: The thermodynamic interaction between β 2-AR and ephedrine plus pseudoephedrine was described by the van't Hoff equation, listed as Eq. (3) and (4). [drawing 3] (3) [drawing 4] (4)
In these equations, R is the ideal gas constant (8.31 J/mol/K), and T is the temperature in Kelvin. According to the semi-empirical rules summarised by Ross et al., when ΔG^θ<0, ΔH^θ>0 and ΔS^θ>0, hydrophobic interaction is the main interaction force during the binding process of a drug to protein. […] If ΔG^θ<0, ΔH^θ<0 and ΔS^θ<0, Van der Waals forces or hydrogen bonds are the major forces of the binding.
The thermodynamic investigation of ephedrine and pseudoephedrine on oriented immobilised β 2-AR was performed at 10, 20, 30, 37 and 45 °C. Eq. (3) and (4) were used to calculate the free energy, enthalpy and entropy during the binding of the two drugs to the receptor. The semi-empirical rules by Ross et al. were utilised to reveal the binding mechanism process of the two drugs to β 2-AR.

[4] = 12 µM ephedrine in mobile phase
[5] = 24 µM ephedrine in mobile phase
[6] = 30 µM ephedrine in mobile phase

For `CN[C@H](C)[C@@H](O)c1ccccc1` [1S,2R-ephedrine], the EC50 (β 2-AR [1]) is listed as 72 µM.
With `CN(C)C(=O)Oc1cc(OC(=O)N(C)C)cc(C(O)CNC(C)(C)C)c1` (centres unmarked) [bambuterol] the “peak retained or non-retained on β 2-AR column” value (“peak retained or non-retained” below) (Immobilized β 2-AR) was “Retained” and the “Retention times, Immobilized β 2-AR” value (Immobilized β 2-AR) was 49.1 min.
In the case of `CC(C)NCC(O)c1ccccc1Cl` (centres unmarked) [clorprenaline], the “peak retained or non-retained” value (Immobilized β 2-AR) is reported as “Retained”, the “Retention times, Immobilized β 2-AR” value (Immobilized β 2-AR) is reported as 9.9 min and the “Retention times, Immobilized β 2-AR” value (Immobilized β 2-AR; listed as Clorprenaline) is reported as 12.5 min.
For `CN[C@@H](C)[C@H](O)c1ccccc1` [ephedrine, 1R,2S-ephedrine], the Kd (β2-ARGsαS) is given as 5.1 ± 1.3 µM, the Kd (wild-type β 2-AR) is given as 8 µM and the Kd (β 2-AR [2]) is given as 168 µM. For the same compound, the “concentration of the binding site” value (β 2-AR [2]) was “(8.92±0.06) ×10^−4 M”, the “capacity factor k′” value (β 2-AR [2]; 4 µM ephedrine in mobile phase) was 5.01±0.02 and the “capacity factor k′” value (β 2-AR [2]; 8 µM ephedrine in mobile phase) was 4.84±0.02. For the same compound, the “capacity factor k′” value (β 2-AR [2]; [4]) was 4.58±0.03, the “capacity factor k′” value (β 2-AR [2]; 20 µM ephedrine in mobile phase) was 4.31±0.01 and the “capacity factor k′” value (β 2-AR [2]; [5]) was 4.08±0.01. For the same compound, the “capacity factor k′” value (β 2-AR [2]; [6]) was 3.80±0.01, the “capacity factor k′” value (β 2-AR [2]; 34 µM ephedrine in mobile phase) was 3.64±0.01 and the association constant (β 2-AR [2]; direct competitive study, pseudoephedrine injected, ephedrine as mobile phase additive) was “(5.98±0.24)×10^3 /M”. The “association constant KA” value (β 2-AR [2]; injection analyte ephedrine (self-competitive)) was “KA ephedrine = (5.94±0.05)×10^3 M^−1”, the “association constant KA” value (β 2-AR [2]; injection analyte ephedrine (self-competitive), listed as 1R,2S-ephedrine) was “(5.94±0.05)×10^3 M^−1” and the “association constant KA” value (β 2-AR [2]; injection analyte pseudoephedrine (direct competitive, ephedrine in mobile phase)) was “KA ephedrine = (5.98±0.24)×10^3 M^−1”. For the same compound, the association constant (β 2-AR [2]; self-competitive study, ephedrine as analyte and competing agent) was “(5.94±0.05)×10^3 /M”, the “types of binding site on β 2-AR” value (β 2-AR [2]) was “Only one type of binding site” and the pD2 (papillary muscle) was “about 5.95”. The binding sites (β 2-AR [3]; 10 °C) was 807 µM, the “decrease of association constant” value (β 2-AR [3]) was 1.4 fold and the “decrease of capacity factor” value (β 2-AR [3]) was 1.2 fold. For the same compound, the “increase of binding sites” value (β 2-AR [3]) was 1.2 fold, the “capacity factor on the β 2-AR column” value (β 2-AR [3]; 10 °C) was 5.40 and the “contribution of ΔH^θ to ΔG^θ” value (β 2-AR [3]; 37 °C) was 29.15%. For the same compound, the “contribution of ΔS^θ to ΔG^θ” value (β 2-AR [3]; 37 °C) was 70.85%, the binding sites (β 2-AR [3]; 45 °C) was 948 µM and the “capacity factor on the β 2-AR column” value (β 2-AR [3]; 45 °C) was 4.63. For the same compound, the Kd (β 2-AR [3]; 283.15 K) was 139 µM, the Kd (β 2-AR [3]; 293.15 K) was 149 µM and the Kd (β 2-AR [3]; 303.15 K) was 161 µM. For the same compound, the Kd (β 2-AR [3]; 310.15 K) was 168 µM, the Kd (β 2-AR [3]; 318.15 K) was 193 µM and the “main force of the binding” value (β 2-AR [3]) was “Electrostatic interaction”. The “ΔS^θ” value (β 2-AR [3]) was 50.94±0.31 J/mol·K.
In the case of `COC(=O)CCc1ccc(OCC(O)CNC(C)C)cc1` (centres unmarked) [esmolol], the “peak retained or non-retained” value (Immobilized β 2-AR) is reported as “Non-retained” and the “Retention times, Immobilized β 2-AR” value (Immobilized β 2-AR) is reported as 1.6 min.
For `CN[C@@H](C)[C@@H](O)c1ccccc1` [pseudoephedrine, 1S,2S-pseudoephedrine], the EC50 (β 2-AR [1]) is listed as 309 µM, the “concentration of the binding site” value (β 2-AR [2]) is listed as “(8.92±0.06) ×10^−4 M” and the “capacity factor k′” value (β 2-AR [2]; 2 µM ephedrine in mobile phase) is listed as 5.87±0.01. The “capacity factor k′” value (β 2-AR [2]; 4 µM ephedrine in mobile phase) was 5.81±0.01, the “capacity factor k′” value (β 2-AR [2]; 8 µM ephedrine in mobile phase) was 5.73±0.01 and the “capacity factor k′” value (β 2-AR [2]; [4]) was 5.66±0.01. For the same compound, the “capacity factor k′” value (β 2-AR [2]; 16 µM ephedrine in mobile phase) was 5.54±0.03, the “capacity factor k′” value (β 2-AR [2]; [5]) was 5.47±0.03 and the “capacity factor k′” value (β 2-AR [2]; [6]) was 5.38±0.01. The “types of binding site on β 2-AR” value (β 2-AR [2]) was “Only one type of binding site”, the binding sites (β 2-AR [3]; 10 °C) was 807 µM and the “decrease of association constant” value (β 2-AR [3]) was 1.5 fold. For the same compound, the “decrease of capacity factor” value (β 2-AR [3]) was 1.2 fold, the “increase of binding sites” value (β 2-AR [3]) was 1.2 fold and the “capacity factor on the β 2-AR column” value (β 2-AR [3]; 10 °C) was 6.36. For the same compound, the binding sites (β 2-AR [3]; 45 °C) was 948 µM, the “capacity factor on the β 2-AR column” value (β 2-AR [3]; 45 °C) was 5.60 and the Kd (β 2-AR [3]; 283.15 K) was 202 µM. It also gave a Kd (β 2-AR [3]; 293.15 K) of 239 µM, a Kd (β 2-AR [3]; 303.15 K) of 249 µM and a Kd (β 2-AR [3]; 310.15 K) of 263 µM. The Kd (β 2-AR [3]; 318.15 K) was 299 µM, the “main force of the binding” value (β 2-AR [3]) was “electrostatic forces” and the “ΔS^θ” value (β 2-AR [3]) was 44.13±0.01 J/mol·K.
For `COc1cc2nc(N3CCN(C(=O)C4CCCO4)CC3)nc(N)c2cc1OC` (centres unmarked) [terazosin], the “peak retained or non-retained” value (Immobilized β 2-AR) was “Non-retained” and the “Retention times, Immobilized β 2-AR” value (Immobilized β 2-AR) was 1.6 min.
In the case of `CC(C)(C)NCC(O)c1ccccc1Cl` (centres unmarked) [tobuterol], the “peak retained or non-retained” value (Immobilized β 2-AR) is reported as “Retained”, the “Retention times, Immobilized β 2-AR” value (Immobilized β 2-AR) is reported as 12.5 min and the “Retention times, Immobilized β 2-AR” value (Immobilized β 2-AR; listed as Tobuterol) is reported as 9.9 min.
